Reference: a melting point compilation (Tetko et al.; mined from patent text by program, amines drawn as free bases though some values may be those of a salt)

`Cc1ccnc(N2CCN(C(=O)CCCC3Cn4c(-c5cc(C)c(O)c(C)c5)c(C)c5cccc(c54)O3)CC2)c1` (centres undefined) gave a melting point of 112 °C.
Work on `[N-]=[N+]=NCC1=NN=C(c2ccc([N+](=O)[O-])cc2)c2cc3c(cc2C1)OCO3` yielded a melting point of 198 to 200 °C.
Work on `C[C@H](NC(=O)COc1ccc2c(-c3ccccc3)nn(C)c2n1)c1ccccc1` yielded a melting point of 55 to 56 °C.
`COC(=O)c1ccc(Nc2ccc(C#N)cc2N)cc1` showed a melting point of 164 to 165 °C.
With `COc1ccc(NCCNc2ccc([N+](=O)[O-])cc2)cc1` the melting point was 150 °C.
With `CCCc1nc2c(N)nc3ccccc3c2n1CCC(=O)N(C)C` the melting point was 207 to 209 °C.
Work on `CCCCSCC(=O)c1cc2[nH]c(=O)[nH]c2cc1Cl` yielded a melting point of 199 to 201 °C.
For `N#Cc1ccc(N2C(=O)N(CCCCO)C3(CCSCC3)C2=O)cc1C(F)(F)F`, the melting point was 139 to 140 °C.
For `CN(Sc1nc2ccccc2s1)C(C)(C)C`, the melting point was 56 to 58 °C.
`COc1ccc2c(Cc3ccc(OC4CCCCC4N(C)C)cc3)c(-c3ccc(OCCN4CCCC4)cc3)sc2c1` (centres undefined) gave a melting point of 58 to 61 °C.
With `CON=CC1=CCCN(C(=O)OCCc2ccc([N+](=O)[O-])cc2)C1` the melting point was 93 to 94 °C.
Compound `COc1nc2cccc(C(=O)O)c2n1Cc1ccc(-c2ccccc2-c2nc(=O)o[nH]2)cc1` has a melting point of 189 to 190 °C.
In the case of `COc1cc(C)c2c(c1)c1c(n2Cc2ccc(Cl)cc2)C(CC(=O)O)CCC1` (centres undefined), the melting point was 188 °C.
Work on `COc1ccc(Cn2ccn(CC(=O)c3ccc(OC)c(OC4CCCC4)c3)c2=O)cc1` yielded a melting point of 106 °C.
`O=C(OC1CCN(Cc2ccc(Cl)cc2)CC1)c1ccc(Cl)cc1` gave a melting point of 67 to 69 °C.
For `CCS(=O)(=O)NC1CCCOc2c(C)cc(Cl)cc21` (centres undefined), the melting point was 144 to 145 °C.
Work on `COc1ccc2c(c1)C(C(=O)N(Cc1ccc(Cl)cc1)c1ccc(C(C)C)cc1)CCC2` (centres undefined) yielded a melting point of 87 to 88 °C.
In the case of `O=C(N(C1CCNCC1)C1CC1)N1N=C2c3cc(F)ccc3OC[C@@H]2[C@@H]1c1ccccc1` (racemic), the melting point was 142 °C.
For `C=C1c2ccccc2CC(NO)c2ccccc21` (centres undefined), the melting point was 145 to 147 °C.
With `c1cc2c(s1)CNCCS2` the melting point was 138 to 139 °C.
For `COc1cn(C(C)c2ccccc2)c(=O)o1` (centres undefined), the melting point was 49 to 52 °C.
With `C=C/C=C/CCOC(=O)c1cc(CBr)cc(CBr)c1` the melting point was 50 to 52 °C.
Work on `CN(C)c1cccc2c1C1=NCCN1c1c(-c3noc(C4CC4)n3)ncn1-2` yielded a melting point of 148 to 150 °C.
Compound `ON=C(Cc1ccccc1)c1ccc(Cl)c(Cl)c1` has a melting point of 81 to 82 °C.
`CCCCCCCCCCCCCCCCCCOc1ccc(OCCCOc2ccc(OCc3ccccc3)cc2)c(C(=O)O)c1` gave a melting point of 92 to 95 °C.
`CC1=C(OCC(C)C)CCC(C)(C)C1(O)C[Si](C)(C)C` (centres undefined) gave a melting point of 50 °C.
Compound `CCOC(=O)Nc1c(OC)cc(CC(C#N)=CNc2ccccc2)cc1OC` has a melting point of 150 to 151 °C.
`CSC1=Nc2ccccc2Cn2cccc21` gave a melting point of 148 to 150 °C.
Work on `COc1ccc(NC(=O)NC2C(=O)Nc3ccccc3N(CCC(C)C)C2=O)cc1` (centres undefined) yielded a melting point of 150 to 152 °C.
`CCOC(=O)c1sc(Cl)nc1-c1ccc(Cl)cc1` showed a melting point of 119 to 120 °C.
Compound `Cc1c(-c2cncc(CO)c2)ccc2c(=O)c(C(=O)O)cn(C3CC3)c12` has a melting point of 221 to 223 °C.
For `CCN(CC)CCCCNc1ncc2cc(-c3c(Cl)cccc3Cl)c(NC(=O)Nc3ccccc3)nc2n1`, the melting point was 81 to 87.5 °C.
With `CC1CC(=O)NN=C1c1ccc(N2CCN(Cc3ccccc3)CC2)c([N+](=O)[O-])c1` (centres undefined) the melting point was 220 to 221 °C.
Compound `CC(C)(C)CNc1cc(N2CCNCC2)nc(NC(C)(C)C)n1` has a melting point of 120 to 124 °C.
Work on `CN(C)CCCCNc1ncc2c(n1)-c1ccccc1C(c1cccc(Br)c1)C2` (centres undefined) yielded a melting point of 115 to 117 °C.
`O=C(O)c1cn(-c2ccc(F)cc2)c2cc(-c3ccncc3)ccc2c1=O` showed a melting point of 280 to 281 °C.
Compound `CCOC(=O)c1ccc2c(CC[N+](=O)[O-])c[nH]c2c1` has a melting point of 124 to 127 °C.
With `CC(=O)N1CCN(c2nc(Nc3ccc(F)cc3F)c(C(=O)O)cc2F)CC1` the melting point was 243 to 244 °C.
Work on `CC(=O)Nc1nc(-c2cccc3ccccc23)co1` yielded a melting point of 188 to 190 °C.
With `CCCCCCCN1C(=O)C2CC2(c2ccc(N)cc2)C1=O` (centres undefined) the melting point was 78 to 79 °C.
`COc1cc(CC(C#N)=CNc2ccccc2)cc(OC)c1NC=O` showed a melting point of 186 to 187 °C.
With `O=C(O)Cc1ccc2c3c(ccc2c1)OCC3` the melting point was 181 to 183 °C.
With `C=CCc1cc(C=CC(=O)O)ccc1OC(C)=O` the melting point was 143 to 144 °C.
Work on `O=C1NS(=O)(=O)c2cc(O)cc(O)c21` yielded a melting point of 286 °C.
Compound `C=CCn1c(=O)n(-c2cccc(C)n2)c2ncccc21` has a melting point of 111 to 112 °C.
`CC(C)N1C(=O)c2ccccc2N(S(C)(=O)=O)S1(=O)=O` showed a melting point of 156 to 158 °C.
With `Cc1nc2cccc(OCC(C)(C)NC(=O)C3CCOCC3)c2c(N)c1C(=O)O` the melting point was 170 to 173 °C.
With `CC1(C)CN=C(Cc2ccc(Cl)cc2)NC1` the melting point was 130 to 132 °C.
In the case of `CC(=NNc1ccc(C2=NNC(=O)CC2)cc1)c1cscn1`, the melting point was over 300 °C.
`CCOC(=O)c1c(C)nc2scnc2c1N` showed a melting point of 118 to 119 °C.
For `CNC(=S)NCCCSc1nccs1`, the melting point was 67 to 68 °C.
`Cc1ccc(-n2ccc(=O)c(-c3ccnn3-c3ccccc3)n2)cc1` gave a melting point of 182 to 183 °C.
For `C[C@](O)(COc1ccc(C#N)c(F)c1)C(=O)Nc1ccc(C#N)c(C(F)(F)F)c1`, the melting point was 124 to 125 °C.
Work on `Cc1cc(CCCCCOc2ccc(C3OC=CO3)cc2)on1` yielded a melting point of 38 to 39 °C.
With `CNCC1Cc2cc(-c3ccccc3)cc(-c3ccc(C)cc3)c2O1` (centres undefined) the melting point was over 250 °C.
Compound `COC1=Cc2c(c(=O)[nH]c3ccc(OC)cc23)[C@@H](C)C1` has a melting point of 153 to 157 °C.
`CN(C)c1cccc(CSC2NC(=S)NC2(C)C)c1` (centres undefined) showed a melting point of 178 to 179 °C.
In the case of `CC1c2onc(-c3ccc(Cl)cc3)c2CCC1(C)C(=O)O` (centres undefined), the melting point was 165 to 170 °C.
For `CC1CCN(C)c2nc(O)ccc21` (centres undefined), the melting point was 134 to 135 °C.
`CCCCCCCCCCCCCCCC(=O)OC(CCCCCCCCCCCCCCC)CC(=O)NCCC(=O)NC(CCC(=O)O)C(=O)O` (centres undefined) gave a melting point of 100 to 104 °C.
In the case of `NS(=O)(=O)c1ccccc1-c1ccc(Cn2c(-c3ccccc3)nc(Cl)c2C=O)cc1`, the melting point was 215 °C.
`CCC(N)(CO)CS(=O)(=O)c1ccccc1C(=O)c1ccccc1` (centres undefined) showed a melting point of 150 to 151 °C.
`COc1ccc2c(c1Cl)C=CN(C(C)=O)C2` showed a melting point of 78 to 80 °C.
`O=C1CCC(N2Cc3c(OCc4ccc(CN5CCN(C(=O)C6CC6)CC5)cc4)cccc3C2=O)C(=O)N1` (centres undefined) showed a melting point of 233 to 235 °C.
With `CC(=O)OCC12CCC(OC(C)=O)CC1CC=C1C2CCC2(C)C(OC(=O)C(C)(C)C)CCC12O` (centres undefined) the melting point was 141 to 142 °C.
`COc1cc2c(cc1OC)C(Cc1ccc([N+](=O)[O-])cc1)NCC2` (centres undefined) gave a melting point of 134 to 136 °C.
Work on `COc1ccc(-c2nn(CC(C)=O)c(=O)cc2-c2ccncc2)cc1` yielded a melting point of 68.3 to 70.6 °C.
Work on `COC(=O)c1cc(I)cn1C` yielded a melting point of 64 to 65 °C.
Work on `CCCCCC(=O)CCn1ccnc1` yielded a melting point of 104 to 106 °C.
Compound `CCS(=O)(=O)c1ccc(Oc2cc(Cl)c(Cl)cc2Cl)nc1` has a melting point of 120 to 122 °C.
For `COc1c(N2CCNC(CF)C2)c(F)cc2c(=O)c(C(=O)O)cn([C@@H]3C[C@@H]3F)c12` (some centres undefined), the melting point was 153 to 156 °C.
`Cc1cccc(NC(=O)NC2N=C(c3ccccc3F)c3ccccc3N(Cc3ncccc3C)C2=O)c1` (racemic) gave a melting point of 216 to 217 °C.
In the case of `COc1cc2c(Nc3ccc(Cl)cc3F)ncnc2cc1OCCOc1ccncc1`, the melting point was 200 to 202 °C.
`O=C1CCC(c2ccc3c(c2)NC(=O)CO3)=NN1` gave a melting point of 274 to 275 °C.
`COc1cc2c(Cl)nc3c4ccccc4nc(Cl)c3c2cc1OC` gave a melting point of 245 to 246 °C.
Compound `COc1cc(OC)cc(\C(C)=C/C=C/C(C)=C/C(=O)Nc2ccc(O)cc2)c1` has a melting point of 162 to 163 °C.
In the case of `O=C(Cc1cccc(C(F)(F)F)c1)N1CCc2cc3c(cc2CC1)OCO3`, the melting point was 102 to 104 °C.
With `COc1ccc(C(Cc2ccccc2)=NO)cc1` the melting point was 132 to 135 °C.
Work on `O=C(Nc1ccc(Cl)c(-c2ccnc3c(C(=O)c4cccs4)cnn23)c1)c1ccccc1` yielded a melting point of 194 to 195 °C.
Work on `CC(=O)c1c(F)cc2c(=O)c(C(=O)O)cn(CCF)c2c1F` yielded a melting point of 215 to 216 °C.
Work on `COc1c(O)c(OC)c2c(=O)cc(-c3ccc(O)cc3)oc2c1OC` yielded a melting point of 266 to 268 °C.
Work on `CC(C)(O)C(C(=O)O)c1ccc(F)cc1` (centres undefined) yielded a melting point of 86 to 88 °C.
`C=CCCCN(C(=O)OC(C)(C)C)c1cc(OCc2ccccc2)c2ccccc2c1I` showed a melting point of 69 to 71 °C.
Compound `O=[N+]([O-])c1cccnc1Cc1ccccc1` has a melting point of 72 °C.
With `N#Cc1ccc(OCCCCCOc2cccc(-c3cc4ccc(C#N)cc4o3)c2)cc1` the melting point was 138 to 140 °C.
Compound `COc1cc[nH]c1C=C1C(=O)Nc2cccc(C#CC(O)c3ccc(OCC(=O)OC(C)(C)C)cc3)c21` (racemic) has a melting point of 173 to 175 °C.
For `CC1=C(CN2CC(C(=O)O)C2)CCc2cc(OCCCc3ccc(F)cc3)ccc21`, the melting point was 154 to 155 °C.
With `Cc1ccc(C=CC(=O)NNC(=O)CCc2cc(C(C)(C)C)c(O)c(C(C)(C)C)c2)cc1` the melting point was 274 to 275 °C.
With `CCC(C)(C)Nc1c(-c2ccc(OC)cc2)c(=O)c1=O` the melting point was 133 to 135 °C.
For `Cc1nc2c(N)nc3cccnc3c2n1CC1(O)CCNCC1`, the melting point was over 260 °C.
In the case of `O=C(O)COc1cc(F)ccc1C(=S)NCc1cccc([N+](=O)[O-])c1`, the melting point was 147 to 150 °C.
`Cc1cc(NS(=O)(=O)c2cccc(S(=O)(=O)Nc3cc(C)c(S(=O)(=O)C[N+](=O)[O-])c(C)c3)c2)cc(C)c1S(=O)(=O)C[N+](=O)[O-]` gave a melting point of 191 to 192 °C.
In the case of `COc1ccc(C(C#Cc2ccccc2)CC(=O)N(C)C)cc1OC1CCCC1` (racemic), the melting point was 87 to 89 °C.
For `C=CC(=O)N(c1cc(-n2ncc(=O)n(C)c2=O)c(F)cc1C#N)S(=O)(=O)CC`, the melting point was 118 °C.
`FC(F)(F)c1cccc(C2=CCN(CCc3ccc4cc[nH]c4c3)CC2)c1` gave a melting point of 168 to 169 °C.
In the case of `COC(=O)NOCC(=O)OCOC(=O)Oc1c(Br)cc(C#N)cc1Br`, the melting point was 110 to 111 °C.
In the case of `COc1ccc(Nc2nc(N3CCOCC3)nc(-n3c(C(F)F)nc4c(OC)cccc43)n2)cn1`, the melting point was 201 to 202 °C.
`CCOC(=O)C=Cc1ccc(OC)cc1OC` showed a melting point of 58 °C.
In the case of `CCCCCCCNC(=O)Nc1ccc(N(C)C)cc1C(=O)NCC1CCN(C(c2ccc(OC)cc2)c2ccc(OC)cc2)CC1`, the melting point was 163 °C.
